Test results published in ChEMBL document CHEMBL4321841, “Development of small molecule inhibitors targeting NLRP3 inflammasome pathway for inflammatory diseases” (Eur J Med Chem, 2020).
pIC50: −log10 of the molar value. Blank lines part the entries; values can stand above or below the compound they belong to.

Key:
[1] = Half life in C57BL/6 mouse plasma at 3 mg/kg, iv or 20 mg/kg, po; type: ADME, organism-based; conditions: in vivo
[2] = target: T1, NACHT, LRR and PYD domains-containing protein 3 (Homo sapiens, UniProt Q96P20); assay: Inhibition of NLRP3 inflammasome activation in LPS-stimulated human THP1 cells assessed as reduction in IL-1beta level at 10 uM preincubated for 1 hr followed by addition of ATP and measured after 1 hr by ELISA method relative to control
[3] = target: T1, NACHT, LRR and PYD domains-containing protein 3; assay: Inhibition of NLRP3 inflammasome activation in PMA differentiated human THP1 cells assessed as reduction in IL-1beta level at 10 uM preincubated for 30 mins followed by addition of MSU and meaured after 6 hrs by ELISA method relative to control
[4] = target: T2, NACHT, LRR and PYD domains-containing protein 3 (Mus musculus, UniProt Q8R4B8); assay: Inhibition of NLRP3 inflammasome activation in LPS-primed mouse NG5 cells assessed as reduction in IL-1beta level incubated for 15followed by addition of ATP by ELISA method; type: cell-based
[5] = target: T1, NACHT, LRR and PYD domains-containing protein 3; assay: Inhibition of NLRP3 inflammasome activation in LPS-primed human THP1 cells assessed as reduction in IL-1beta level preincubated for 1 hr followed by addition of ATP and measured after 1 hr by ELISA method
[6] = target: T1, NACHT, LRR and PYD domains-containing protein 3; assay: Inhibition of NLRP3 inflammasome activation in LPS-primed human THP1 cells assessed as reduction in IL-1beta level at 20 uM preincubated for 1 hr followed by addition of ATP and measured after 3 hrs by ELISA method relative to control
[7] = target: T1, NACHT, LRR and PYD domains-containing protein 3; assay: Inhibition of NLRP3 inflammasome activation in PMA differentiated human THP1 cells assessed as reduction in IL-1beta level preincubated for 30 mins followed by addition of MSU and meaured after 6 hrs by ELISA method relative to control
[8] = Cmax in mouse at 1000 mg, po administered once daily for 8 days; type: ADME, organism-based; set-up: dose 1000 mg, route oral; conditions: in vivo
[9] = target: T2, NACHT, LRR and PYD domains-containing protein 3; assay: Inhibition of NLRP3 inflammasome activation in LPS-primed mouse J774A.1 cells assessed as reduction in IL-1beta level preincubated for 30 mins followed by addition of nigericin and measured after 40 mins by ELISA
[10] = target: T2, NACHT, LRR and PYD domains-containing protein 3; assay: Inhibition of NLRP3 inflammasome activation in mouse J774A.1 cells assessed as reduction in IL-1beta level preincubated for 2 hrs followed by LPS-stimulation and further incubated for 5.5 hrs and subsequently ATP addition and measured after 30 mins by ELISA method; type: cell-based
[11] = target: T2, NACHT, LRR and PYD domains-containing protein 3; assay: Inhibition of NLRP3 inflammasome activation in LPS-primed mouse bone marrow derived macrophages incubated for 1 hr followed by addition of ATP and measured after 1 hr by immunoblotting analysis
Peroxiredoxin-1 = target: T3, Peroxiredoxin-1 (Homo sapiens, UniProt Q06830); assay: Inhibition of PRDX1 in human PMA-differentiated LPS-stimulated THP1 cells assessed as reduction in NLRP3 inflammasome activation preincubated for 1 hr followed by addition of ATP and mesured after 1 hr by ELISA
T3 sequence (Q06830 whole entry): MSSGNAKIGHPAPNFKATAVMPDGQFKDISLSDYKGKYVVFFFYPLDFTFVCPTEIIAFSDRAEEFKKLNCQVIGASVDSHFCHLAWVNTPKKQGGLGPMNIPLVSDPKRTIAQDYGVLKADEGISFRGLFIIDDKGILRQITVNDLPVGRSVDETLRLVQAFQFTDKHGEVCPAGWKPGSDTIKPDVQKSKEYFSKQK

[12] = target: NACHT, LRR and PYD domains-containing protein 3 (Mus musculus) (UniProt Q8R4B8); assay: Inhibition of NLRP3 inflammasome activation in LPS-primed mouse J774A.1 cells assessed as reduction in IL-1beta level at 10 uM preincubated for 1 hr followed by addition of ATP and measured after 30 mins by ELISA method relative to control
[13] = target: T2, NACHT, LRR and PYD domains-containing protein 3; assay: Inhibition of NLRP3 inflammasome activation in LPS-primed mouse J774A.1 cells assessed as reduction in IL-1beta level preincubated for 1 hr followed by addition of ATP and measured after 30 mins by ELISA method
[14] = target: T2, NACHT, LRR and PYD domains-containing protein 3; assay: Inhibition of NLRP3 inflammasome activation in LPS-primed C57BL/6 mouse bone marrow derived macrophages preincubated for 15 mins followed by addition of ATP and measured after 1 hr by ELISA
[15] = target: T2, NACHT, LRR and PYD domains-containing protein 3; assay: Inhibition of NLRP3 inflammasome activation in LPS-primed mouse bone marrow derived macrophages assessed as reduction in IL-1beta level preincubated for 30 mins followed by addition of ATP and measured after 1 hr by ELISA method
THP-1 [16] = assay: Inhibition of pyroptosis in PMA-differentiated and LPSprimed human THP1 cells assessed as LDH activity at 10 uM preincubated for 1 hr followed by addition of ATP and measured after 1 hr by CytoTox 96 Non-Radioactive Cytotoxicity Assay relative to control; type: functional
[17] = target: T1, NACHT, LRR and PYD domains-containing protein 3; assay: Inhibition of recombinant human NLRP3 ATPase assessed as reduction in ADP formation preincubated for 10 mins followed by ATP addition and measured after 40 mins by ADP-Glo assay
THP-1 [18] = assay: Inhibition of pyroptosis in PMA-differentiated and LPS-primed human THP1 cells assessed as LDH activity preincubated for 1 hr followed by addition of ATP and measured after 1 hr by CytoTox 96 Non-Radioactive Cytotoxicity Assay; type: functional, cell-based

T1 sequence (Q96P20 whole entry, the tested form may be a part): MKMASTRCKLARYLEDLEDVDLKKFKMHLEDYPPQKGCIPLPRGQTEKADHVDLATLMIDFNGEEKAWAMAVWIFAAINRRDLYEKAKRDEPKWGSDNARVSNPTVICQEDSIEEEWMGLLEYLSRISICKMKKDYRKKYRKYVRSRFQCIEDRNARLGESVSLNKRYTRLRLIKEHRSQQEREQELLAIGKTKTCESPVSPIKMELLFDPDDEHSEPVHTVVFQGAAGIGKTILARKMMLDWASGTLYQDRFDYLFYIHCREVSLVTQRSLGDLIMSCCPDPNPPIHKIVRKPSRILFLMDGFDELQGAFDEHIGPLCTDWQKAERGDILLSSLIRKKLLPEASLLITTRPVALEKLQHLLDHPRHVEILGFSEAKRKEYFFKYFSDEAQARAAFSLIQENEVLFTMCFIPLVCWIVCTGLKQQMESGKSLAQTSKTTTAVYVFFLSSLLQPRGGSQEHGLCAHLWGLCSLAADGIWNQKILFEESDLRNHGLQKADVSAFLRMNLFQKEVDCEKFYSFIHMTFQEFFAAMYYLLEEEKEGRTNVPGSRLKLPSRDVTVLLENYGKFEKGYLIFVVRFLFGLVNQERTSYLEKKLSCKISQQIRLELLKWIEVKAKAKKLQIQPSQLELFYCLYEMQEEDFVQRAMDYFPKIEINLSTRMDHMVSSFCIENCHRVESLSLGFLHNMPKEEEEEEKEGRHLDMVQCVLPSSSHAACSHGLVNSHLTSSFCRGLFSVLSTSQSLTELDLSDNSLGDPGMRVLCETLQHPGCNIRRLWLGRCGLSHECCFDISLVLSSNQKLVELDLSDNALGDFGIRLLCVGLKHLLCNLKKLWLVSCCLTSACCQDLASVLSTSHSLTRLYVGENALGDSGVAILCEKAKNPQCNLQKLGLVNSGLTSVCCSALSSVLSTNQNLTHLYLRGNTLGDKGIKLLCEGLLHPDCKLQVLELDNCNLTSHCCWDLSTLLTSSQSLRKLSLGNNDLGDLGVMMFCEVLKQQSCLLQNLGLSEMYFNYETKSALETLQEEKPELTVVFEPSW
T2 sequence (Q8R4B8 whole entry, the tested form may be a part): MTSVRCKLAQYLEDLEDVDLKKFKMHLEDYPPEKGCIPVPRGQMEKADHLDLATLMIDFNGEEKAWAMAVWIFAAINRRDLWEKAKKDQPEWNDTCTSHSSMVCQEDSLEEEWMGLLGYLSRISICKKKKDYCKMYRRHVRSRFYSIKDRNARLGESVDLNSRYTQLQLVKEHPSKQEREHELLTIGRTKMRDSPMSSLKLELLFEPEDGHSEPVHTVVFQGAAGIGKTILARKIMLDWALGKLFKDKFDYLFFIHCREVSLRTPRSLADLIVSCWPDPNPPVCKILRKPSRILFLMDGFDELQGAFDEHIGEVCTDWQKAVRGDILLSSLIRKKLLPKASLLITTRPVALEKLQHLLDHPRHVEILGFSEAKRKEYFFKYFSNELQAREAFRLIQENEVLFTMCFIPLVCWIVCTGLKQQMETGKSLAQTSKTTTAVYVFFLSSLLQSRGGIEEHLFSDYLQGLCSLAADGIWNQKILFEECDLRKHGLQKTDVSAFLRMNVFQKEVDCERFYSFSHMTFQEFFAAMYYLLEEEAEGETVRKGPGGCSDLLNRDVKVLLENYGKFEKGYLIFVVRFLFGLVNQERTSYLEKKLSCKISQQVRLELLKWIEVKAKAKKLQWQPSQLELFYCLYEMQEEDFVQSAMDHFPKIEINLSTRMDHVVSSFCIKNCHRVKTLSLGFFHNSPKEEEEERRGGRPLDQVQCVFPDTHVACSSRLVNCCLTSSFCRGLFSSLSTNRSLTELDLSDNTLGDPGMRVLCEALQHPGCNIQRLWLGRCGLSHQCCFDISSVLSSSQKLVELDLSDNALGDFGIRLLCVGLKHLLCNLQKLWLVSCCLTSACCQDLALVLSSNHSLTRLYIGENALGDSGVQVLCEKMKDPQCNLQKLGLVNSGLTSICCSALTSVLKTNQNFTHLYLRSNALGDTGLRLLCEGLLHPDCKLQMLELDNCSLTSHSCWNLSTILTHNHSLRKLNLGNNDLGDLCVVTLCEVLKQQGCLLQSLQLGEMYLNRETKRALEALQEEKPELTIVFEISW
Chain of NACHT, LRR and PYD domains-containing protein 3 (Mus musculus) (Q8R4B8 whole entry, the tested form may be a part): as above

inhibition [2]: 30%
Structure (SMILES): c1cc2[nH]c(-c3cscn3)nc2cn1

inhibition [6]: 60.3%
Structure (SMILES): CCCCCCC/C=C/C(=O)CCc1ccc(O)c(OC)c1

pIC50 [10]: 5.07
Structure (SMILES): COc1ccc(Cl)cc1C(=O)NCCc1ccc(S(=O)(=O)NO)cc1

inhibition [12]: 28.8%
Structure (SMILES): COc1ccc(-c2nc(O)c3ccccc3n2)cc1

pIC50 [14]: 4.60
Structure (SMILES): Cc1cccc(Nc2ccccc2C(=O)O)c1C [MEFENAMIC ACID]

pIC50 [15]: 7.38
Structure (SMILES): CCC1=C(C)CN(C(=O)NCCc2ccc(S(=O)(=O)NC(=O)Nc3c4c(cc5c3CCC5)CCC4)cc2)C1=O

pIC50 [13]: 5.30
Structure (SMILES): COc1ccc2c(c1)C(=O)N(c1ccccc1)C2=O

The next lines start with the compound.

Structure (SMILES): CC(C)(O)c1coc(S(=O)(=O)NC(=O)Nc2c3c(cc4c2CCC4)CCC3)c1
t1/2 [1]: 3.27 h

Structure (SMILES): O=c1cc(-c2ccc(Cl)c(Cl)c2)oc2ccccc12
inhibition [3]: 49.5%

Structure (SMILES): Cc1ccc(S(=O)(=O)/C=C/C#N)cc1
pIC50 [4]: 4.92

Structure (SMILES): CCn1c(-c2ccccc2)nc2cc(C)ccc21
pIC50 [5]: 5.00

Structure (SMILES): O=c1cc(-c2ccc(O)cc2)oc2cc(O)cc(O)c12 [APIGENIN]
inhibition [3]: 42.9% | pIC50 [7]: 5.00

Structure (SMILES): CS(=O)(=O)CCC#N [DAPANSUTRILE]
Cmax [8]: 311 µM | pIC50 [9]: 9.00

Structure (SMILES): O=[N+]([O-])c1ccc2[nH]c(-c3cscn3)nc2c1
inhibition [2]: 30%

Structure (SMILES): CC1CC(=O)c2s/c(=N\C3CCCCC3)oc2C1 (centres undefined)
pIC50 [11]: 5.89

Structure (SMILES): O=C1/C(=C/c2ccccn2)CNC/C1=C\c1ccccn1
pIC50 (Peroxiredoxin-1): 6.02

Structure (SMILES): CCCCC/C=C/C(=O)CCc1ccc(O)c(OC)c1
inhibition [6]: 100%

Structure (SMILES): O=c1[nH]c(-c2ccc([N+](=O)[O-])cc2)nc2ccccc12
pIC50 [13]: 5.30

Structure (SMILES): O=c1[nH]c(-c2ccc(C(F)(F)F)cc2)nc2ccccc12
inhibition [12]: 21.3%

Structure (SMILES): C=C(Cc1ccccc1Cl)C(=O)NCCc1ccc(S(N)(=O)=O)cc1
inhibition at 10 µM (THP-1 [16]): 45.8% | pIC50 [17]: 4.13 | pIC50 (THP-1 [18]): 4.63
